The record followed here is patent publication US11998033B2, “Sweetening compositions” (PepsiCo, Inc., priority 2016, dated 2024).

Read-outs that look alike come from different tables or passages of the source.

The format of data set [1] is physicochemical. As to the method: (§1) For the examples below, turbidity is reported in NTUs and was measured at 20±2° C. using a Hach 2100AN Turbidimeter. The instrument was calibrated using a STABLCAL Calibration Kit including samples having turbidities ranging from 0.1 NTU to 7500 NTU. Test samples were measured in a Turbidimeter glass vial and NTU values were read after a 30 second stabilization period.
Suspensions of 1 weight percent rebaudioside D in water at ambient temperature were prepared in five individual beakers. Rebaudioside A, stevioside, rebaudioside C, and rebaudioside M were added to each of the first four beakers, respectively, such that that the resulting weight ratio of rebaudioside D to the added steviol glycoside was 1:5. As a control, no additional steviol glycoside was added to the fifth beaker.
After stirring, turbidity measurements were taken from each of the five samples and graphed. According to the turbidity measurements, rebaudiosides A and M had no effect on rebaudioside D solubility.

The format of data set [2] is physicochemical. As to the method:
as §1
Varying concentrations of rebaudioside A, rebaudioside C, rebaudioside B, and rebaudioside M were then added individually to the stevioside/rebaudioside D solutions at 70° C. The solutions were allowed to cool to room temperature. Each sample's appearance was noted and turbidity measurements were taken to track solubility.
This is another data set of the same source.

Data set [3] can be described thus: Example 4: temperature and low shear mixing (turbidity, HPLC of supernatant). The data set is classed as physicochemical. As to the method:
This study was conducted with a 5:1 mixture (weight/weight) of rebaudioside A and rebaudioside D and a 5:1 mixture (weight/weight) of a rebaudioside A composition and rebaudioside D, wherein the rebaudioside A composition included 30 weight percent stevioside.
The described blends were individually combined with water to produce compositions having rebaudioside D concentrations of 1.4 weight percent based on the total mass of the mixture, including water. The mixtures were then mixed under low shear for 10 minutes at ambient temperature (21° C.). A 100 g sample was removed and centrifuged, and the resulting supernatant was analyzed for turbidity and rebaudioside A and D concentration (HPLC).
The mixtures were then warmed to 45° C. and mixed for 10 minutes. Another 100 g sample was removed and analyzed as described above.
The mixtures were finally warmed to 65° C. and mixed for 10 minutes. Another 100 g sample was removed an analyzed as described above.
This experiment was repeated with 10:1 mixtures of the compositions described above, wherein the final rebaudioside D concentration in each of the compositions was 1.43 weight percent, based on the total mass of the composition, including water.

Data set [4] is classed as physicochemical. As to the method: Rebaudioside D has a better sugar character and taste profile than Rebaudioside A, but only about 200 ppm Rebaudioside D can be solubilized in water at 23° C. after about 30 minutes stirring. While up to about 450 ppm rebaudioside can be solubilized after extended stirring, the amount of time required to prepare these higher concentration rebaudioside D solutions is impractical on a commercial scale. Similarly, while an 8000 ppm aqueous rebaudioside D solution can be prepared by heating rebaudioside D in water to nearly 100° C. for two hours, cooling the solution results in recrystallization, making the solution impractical to work with on a commercial manufacturing scale.
For example, in certain embodiments, rebaudioside D solubility can be increased 50 fold, for example, from about 200 ppm (0.02 weight percent) up to about 10,000 ppm (1 weight percent), when a 1 weight percent rebaudioside D suspension is combined with sufficient stevioside to produce a 50,000 ppm (5 weight percent) steviol glycoside solution. In other embodiments, even greater increases in rebaudioside D solubility can be observed.
The source holds these as a separate data set.

The nature of data set [5]: Example 1: room temperature rebaudioside D solubility (turbidity). The class given is physicochemical. The conditions noted are these: 0.02 to 1.5 weight percent, ambient temperature, FIG. 1. Here is the method: as §1
Rebaudioside D was added to a number of beakers in increasing concentrations (0.02 weight percent, 0.04 weight percent, 0.1 weight percent, 0.5 weight percent, 1 weight percent, and 1.5 weight percent) at ambient temperature. Turbidity measurements were taken to track solubility in the various samples and the results were plotted (FIG. 1).

Data set [6] can be described thus: Example 2: rebaudioside D solubility at elevated temperatures (turbidity). The class given is physicochemical. As to the method:
as §1
The samples prepared in Example 1 were heated to 70° C. and turbidity was measured again. At 70° C., the 0.5 weight percent rebaudioside D sample was soluble. But the 1 and 1.5 weight percent rebaudioside D samples continued to show maximum turbidity (about 12,000 NTU).

A short description of data set [7]: Example 8: effect of temperature on solubility (appearance, turbidity). The class given is physicochemical. As to the method:
as §1
Aqueous samples containing the amounts of rebaudioside D and stevioside listed in Table 3 were prepared by combining the noted amounts of rebaudioside D and stevioside in water. The samples were then warmed to the temperatures noted in the table.
The appearance of all the samples prepared as above was noted and turbidity measurements were taken to track solubility.

Data set [8] is described as follows: Example 9: HPLC analysis of aqueous filtrate after centrifugation and filtration. The data set is classed as physicochemical. As to conditions: rebaudioside B added at 0.4% to stevioside/rebaudioside D solution, centrifuged, filtered. As to the method:
To confirm that the cloudiness observed in samples comprising rebaudioside B was due to the rebaudioside B itself, a solution of stevioside and rebaudioside D was prepared and rebaudioside B was added at a concentration of 0.4% to form a cloudy suspension. The sample was centrifuged and filtered and the aqueous filtrate was analyzed by HPLC. […] Thus, the cloudiness observed with the addition of rebaudioside B was due to the insolubility of rebaudioside B itself, and not due to the degradation of the rebaudioside D/stevioside complex.

Consider `C=C1C[C@@]23CC[C@H]4[C@@](C)(CCC[C@@]4(C)C(=O)O[C@@H]4O[C@H](CO)[C@@H](O)[C@H](O)[C@H]4O)[C@@H]2CC[C@]1(O[C@@H]1O[C@H](CO)[C@@H](O)[C@H](O[C@@H]2O[C@H](CO)[C@@H](O)[C@H](O)[C@H]2O)[C@H]1O[C@@H]1O[C@H](CO)[C@@H](O)[C@H](O)[C@H]1O)C3` [rebaudioside A], for which the “effect of added steviol glycoside on rebaudioside D solubility” value (shortened to “effect of added steviol glycoside”) in data set [1] is listed as “no effect”. Also, the “effect of adding the steviol glycoside on rebaudioside D's solubility” value (“effect of adding the steviol glycoside” for short) in data set [2] was “does not affect rebaudioside D's solubility”. For the same compound, the “effect on solubility of rebaudioside D” value in data set [3] (5:1 mixture with rebaudioside D, 1.4 weight percent rebaudioside D, low shear 10 minutes, at each of 21° C., 45° C. and 65° C.) was “neither rebaudioside A nor the rebaudioside A/stevioside composition including 30 weight percent stevioside enhanced the solubility of rebaudioside D”; in data set [3] (10:1 mixture with rebaudioside D, 1.43 weight percent rebaudioside D, low shear), “did not enhance the solubility of rebaudioside D”.
Take `C=C1C[C@@]23CC[C@H]4[C@@](C)(CCC[C@@]4(C)C(=O)O[C@@H]4O[C@H](CO)[C@@H](O)[C@H](O)[C@H]4O[C@@H]4O[C@H](CO)[C@@H](O)[C@H](O)[C@H]4O)[C@@H]2CC[C@]1(O[C@@H]1O[C@H](CO)[C@@H](O)[C@H](O[C@@H]2O[C@H](CO)[C@@H](O)[C@H](O)[C@H]2O)[C@H]1O[C@@H]1O[C@H](CO)[C@@H](O)[C@H](O)[C@H]1O)C3` [rebaudioside D]: the “aqueous rebaudioside D solution that can be prepared by heating” value in data set [4] came to 8000 ppm. For the same compound, the “solubility in water at room temperature” value in data set [5] is reported as “insoluble”. For the same compound, in data set [6] (0.5 weight percent sample at 70° C.), the solubility in water entry is “soluble”. Also, the turbidity result in data set [6] (1 and 1.5 weight percent samples at 70° C.) was “about 12,000 NTU”. The “solubility of rebaudioside D at 70° C. and on cooling” value in data set [7] (all four concentrations of rebaudioside D below 0.4) is “dissolved at 70° C., but precipitated from solution when cooled unless stevioside was present”. Besides, the “solubility of rebaudioside D” value in data set [7] (concentration of 0.1%, 20° C., even up to a 4:1 ratio of stevioside to rebaudioside D) is listed as “insoluble”.
Consider `C=C1C[C@@]23CC[C@H]4[C@@](C)(CCC[C@@]4(C)C(=O)O[C@@H]4O[C@H](CO)[C@@H](O)[C@H](O[C@@H]5O[C@H](CO)[C@@H](O)[C@H](O)[C@H]5O)[C@H]4O[C@@H]4O[C@H](CO)[C@@H](O)[C@H](O)[C@H]4O)[C@@H]2CC[C@]1(O[C@@H]1O[C@H](CO)[C@@H](O)[C@H](O[C@@H]2O[C@H](CO)[C@@H](O)[C@H](O)[C@H]2O)[C@H]1O[C@@H]1O[C@H](CO)[C@@H](O)[C@H](O)[C@H]1O)C3` [rebaudioside M], for which, in data set [1], the “effect of added steviol glycoside” value is on record as “no effect”. Further, the “effect of adding the steviol glycoside” value in data set [2] is given as “does not affect rebaudioside D's solubility”.
Turning to `C=C1C[C@@]23CC[C@H]4[C@@](C)(CCC[C@@]4(C)C(=O)O[C@@H]4O[C@H](CO)[C@@H](O)[C@H](O)[C@H]4O)[C@@H]2CC[C@]1(O[C@@H]1O[C@H](CO)[C@@H](O)[C@H](O)[C@H]1O[C@@H]1O[C@H](CO)[C@@H](O)[C@H](O)[C@H]1O)C3` [stevioside], in data set [1], the “effect of added steviol glycoside” value is listed as “clear mixture”.
Regarding rebaudioside B, the “share of the amount initially added contained in the aqueous filtrate” value in data set [8] turned out to be 65%. Besides, the solubility entry in data set [2] was “insoluble”. Besides, the “appearance after adding the steviol glycoside” value in data set [2] (added at or over 0.2% to stevioside/rebaudioside D solution) was “cloudy solution”.
As to rebaudioside C, in data set [1] (1 weight percent rebaudioside D in water, ambient temperature, rebaudioside D to added steviol glycoside 1:5 by weight, FIG. 3), the turbidity entry was “about 1000 NTU”. For the same compound, the “effect of adding the steviol glycoside” value in data set [2] was “does not affect rebaudioside D's solubility”.
